Assays:
[1] = system: SNU-475; assay: Disruption of cancer stem cell subpopulation of human SNU475 cells assessed as effect on CD90 levels at IC100 after 72 hrs by flow cytometric method (reference value: 0.2%); format: functional
[2] = system: Mahlavu; assay: Cytotoxicity against human Mahlavu cells assessed as growth inhibition after 72 hrs by SRB assay; format: functional, cell-based
[3] = system: Huh-7; assay: Disruption of cancer stem cell subpopulation of human HuH7 cells assessed as effect on EpCAM levels at IC100 after 72 hrs by flow cytometric method (reference value: 13.7 to 33%); format: functional
[4] = system: Huh-7; assay: Disruption of cancer stem cell subpopulation of human HuH7 cells assessed as aggressiveness factor at IC100 after 72 hrs by flow cytometric method; format: functional
[5] = system: Hep 3B2; assay: Disruption of cancer stem cell subpopulation of human Hep3B cells assessed as effect on CD133 levels at IC100 after 72 hrs by flow cytometric method (reference value: 0 to 0.6%); format: functional
[6] = system: Hep 3B2; assay: Disruption of cancer stem cell subpopulation of human Hep3B cells assessed as effect on EpCAM levels at IC100 after 72 hrs by flow cytometric method (reference value: 0 to 0.6%); format: functional
[7] = system: Huh-7; assay: Disruption of cancer stem cell subpopulation of human HuH7 cells assessed as effect on CD133 levels at IC100 after 72 hrs by flow cytometric method (reference value: 0 to 0.6%); format: functional
[8] = system: SNU-475; assay: Cytotoxicity against human SNU475 cells assessed as growth inhibition after 72 hrs by SRB assay; format: functional, cell-based
[9] = system: Huh-7; assay: Cytotoxicity against human HuH7 cells assessed as growth inhibition after 72 hrs by SRB assay; format: functional, cell-based
[10] = system: Mahlavu; assay: Disruption of cancer stem cell subpopulation of human Mahlavu cells assessed as aggressiveness factor at IC100 after 72 hrs by flow cytometric method; format: functional
[11] = system: Hep 3B2; assay: Disruption of cancer stem cell subpopulation of human Hep3B cells assessed as aggressiveness factor at IC100 after 72 hrs by flow cytometric method; format: functional
[12] = system: SNU-475; assay: Disruption of cancer stem cell subpopulation of human SNU475 cells assessed as aggressiveness factor at IC100 after 72 hrs by flow cytometric method; format: functional
[13] = system: Hep 3B2; assay: Cytotoxicity against human Hep3B cells assessed as growth inhibition after 72 hrs by SRB assay; format: functional, cell-based
[14] = system: Mahlavu; assay: Disruption of cancer stem cell subpopulation of human Mahlavu cells assessed as effect on CD90 levels at IC100 after 72 hrs by flow cytometric method (reference value: 0.6%); format: functional
[15] = target: Vascular endothelial growth factor receptor 2 (Homo sapiens, UniProt P35968); assay: Inhibition of N-terminal GST-fused human VEGFR2 C-terminal fragment expressed in Sf9 insect cells using poly(Glu:Tyr) 4:1 as substrate; format: cell-based
Sequence of Vascular endothelial growth factor receptor 2 (P35968 whole entry, the tested form may be a part): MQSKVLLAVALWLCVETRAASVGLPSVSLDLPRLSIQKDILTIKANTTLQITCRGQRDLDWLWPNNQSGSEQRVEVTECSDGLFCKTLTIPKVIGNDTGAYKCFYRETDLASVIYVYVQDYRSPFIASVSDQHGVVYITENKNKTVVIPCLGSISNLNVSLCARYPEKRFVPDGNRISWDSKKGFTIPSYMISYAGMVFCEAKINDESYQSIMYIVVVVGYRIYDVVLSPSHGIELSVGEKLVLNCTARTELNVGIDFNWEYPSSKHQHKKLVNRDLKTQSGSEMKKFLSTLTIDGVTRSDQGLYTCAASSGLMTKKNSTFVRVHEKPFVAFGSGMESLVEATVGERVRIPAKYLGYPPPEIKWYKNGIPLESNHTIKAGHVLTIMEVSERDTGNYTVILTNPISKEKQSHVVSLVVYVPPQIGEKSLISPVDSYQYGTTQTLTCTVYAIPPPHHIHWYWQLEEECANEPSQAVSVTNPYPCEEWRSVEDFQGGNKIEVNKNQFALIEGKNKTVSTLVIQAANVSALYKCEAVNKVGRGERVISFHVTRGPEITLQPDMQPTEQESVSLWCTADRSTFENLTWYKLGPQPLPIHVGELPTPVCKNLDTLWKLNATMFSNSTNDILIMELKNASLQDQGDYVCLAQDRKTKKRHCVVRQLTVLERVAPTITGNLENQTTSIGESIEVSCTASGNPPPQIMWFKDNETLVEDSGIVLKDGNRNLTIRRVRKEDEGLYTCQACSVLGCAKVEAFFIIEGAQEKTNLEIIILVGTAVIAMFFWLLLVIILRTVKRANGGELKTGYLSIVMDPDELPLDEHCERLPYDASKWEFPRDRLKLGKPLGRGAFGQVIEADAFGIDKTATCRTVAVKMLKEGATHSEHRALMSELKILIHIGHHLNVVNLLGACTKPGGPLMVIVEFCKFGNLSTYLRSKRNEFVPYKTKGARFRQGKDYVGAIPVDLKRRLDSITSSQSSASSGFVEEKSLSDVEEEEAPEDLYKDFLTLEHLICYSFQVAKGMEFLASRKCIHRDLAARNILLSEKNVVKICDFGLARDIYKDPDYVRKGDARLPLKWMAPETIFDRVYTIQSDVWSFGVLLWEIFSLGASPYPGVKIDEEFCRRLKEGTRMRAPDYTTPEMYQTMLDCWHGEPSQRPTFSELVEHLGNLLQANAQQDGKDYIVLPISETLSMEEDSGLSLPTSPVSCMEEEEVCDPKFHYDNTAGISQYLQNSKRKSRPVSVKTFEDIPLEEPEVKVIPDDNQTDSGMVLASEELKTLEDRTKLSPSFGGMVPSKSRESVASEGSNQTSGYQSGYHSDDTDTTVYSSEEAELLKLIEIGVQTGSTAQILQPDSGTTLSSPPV

[16] = target: Focal adhesion kinase 1 (Homo sapiens) (UniProt Q05397); assay: Inhibition of FAK phosphorylation at Y397 in human bone marrow mesenchymal stem cells at 1 uM after 1 hr by immunoblot method relative to control
Sequence of Focal adhesion kinase 1 (Homo sapiens) (Q05397 2-1052 limits assumed): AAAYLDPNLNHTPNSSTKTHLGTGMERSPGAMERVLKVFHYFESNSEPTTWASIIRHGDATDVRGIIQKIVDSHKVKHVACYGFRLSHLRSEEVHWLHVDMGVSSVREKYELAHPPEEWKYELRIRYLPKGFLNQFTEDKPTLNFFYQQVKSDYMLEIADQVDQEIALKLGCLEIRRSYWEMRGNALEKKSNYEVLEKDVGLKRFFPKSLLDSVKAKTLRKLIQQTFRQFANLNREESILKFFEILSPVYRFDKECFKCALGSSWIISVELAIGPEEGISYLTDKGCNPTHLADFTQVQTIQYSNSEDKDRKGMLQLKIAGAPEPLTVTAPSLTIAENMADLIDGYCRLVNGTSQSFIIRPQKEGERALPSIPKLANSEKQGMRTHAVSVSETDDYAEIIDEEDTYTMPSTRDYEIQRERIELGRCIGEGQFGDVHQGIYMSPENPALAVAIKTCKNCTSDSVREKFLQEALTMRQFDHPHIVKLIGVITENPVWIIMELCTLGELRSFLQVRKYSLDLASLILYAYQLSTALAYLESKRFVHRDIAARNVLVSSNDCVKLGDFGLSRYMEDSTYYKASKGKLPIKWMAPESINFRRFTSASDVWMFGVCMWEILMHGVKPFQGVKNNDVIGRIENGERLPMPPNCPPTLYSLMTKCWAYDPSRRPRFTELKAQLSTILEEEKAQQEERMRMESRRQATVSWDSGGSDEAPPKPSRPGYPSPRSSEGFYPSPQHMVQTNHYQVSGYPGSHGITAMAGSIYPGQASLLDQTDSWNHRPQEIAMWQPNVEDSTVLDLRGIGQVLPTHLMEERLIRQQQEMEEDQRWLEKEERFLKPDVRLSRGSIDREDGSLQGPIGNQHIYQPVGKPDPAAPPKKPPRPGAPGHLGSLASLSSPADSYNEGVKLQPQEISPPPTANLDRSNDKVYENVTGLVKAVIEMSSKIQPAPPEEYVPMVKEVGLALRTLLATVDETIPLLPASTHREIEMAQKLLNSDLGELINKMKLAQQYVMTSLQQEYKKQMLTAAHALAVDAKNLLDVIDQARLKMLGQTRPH

[17] = target: Focal adhesion kinase 1 (Homo sapiens) (UniProt Q05397); assay: Inhibition of FAK phosphorylation at Y397 in human bone marrow mesenchymal stem cells at 5 uM after 1 hr by immunoblot method relative to control
[18] = Homo sapiens, Mahlavu, 72 h, read-out: IC50
[19] = Homo sapiens, SNU-475, 72 h, read-out: IC50
[20] = Homo sapiens, Huh-7, 72 h, read-out: IC50
[21] = Homo sapiens, Hep3B, 72 h, read-out: IC50

`COC1=CC(=O)C([S@@+]([O-])c2ccc(C)cc2)=CC1=O` gave an Activity [1] of 0.4%, an IC50 [2, 18] of 11.3 µM and an Activity [3] of 29.1%. The “fold change (FC)” value [4] was 0.9, the Activity [5] was 0% and the Activity [6] was 84.7%. For the same compound, the Activity [7] was 0.3%, the IC50 [8, 19] was 9 µM and the IC50 [9, 20] was 10.6 µM. For the same compound, the “fold change (FC)” value [10] was 2.3, the “fold change (FC)” value [11] was 1.1 and the “fold change (FC)” value [12] was 2. It also gave an IC50 [13, 21] of 9.9 µM and an Activity [14] of 1.4%.

`Cc1ccc([S@+]([O-])C2=CC(=O)C=CC2=O)cc1` showed an Activity [1] of 0%, an IC50 [2, 18] of 31.3 µM and an Activity [3] of 30.6%. For the same compound, the “fold change (FC)” value [4] was 0.9, the Activity [5] was 0% and the Activity [6] was 81.4%. It also gave an Activity [7] of 0.2%, an IC50 [8, 19] of 0.3 µM and an IC50 [9, 20] of 20 µM. The “fold change (FC)” value [10] was 0.3, the “fold change (FC)” value [11] was 1.1 and the “fold change (FC)” value [12] was 0. It also gave an IC50 [13, 21] of 17.4 µM and an Activity [14] of 0.2%.

`CCS(=O)(=O)c1ccc(OC)c(Nc2ncc(-c3cccc(-c4cc[nH]c4)c3)o2)c1` was tested, and the IC50 [2, 18] was 0.8 µM, the Activity [3] was 32.1% and the “fold change (FC)” value [4] was 2.3. The IC50 [15] was 0.018 µM, the Activity [7] was 0.9% and the IC50 [9, 20] was 1.7 µM. For the same compound, the “fold change (FC)” value [11] was 2.1 and the IC50 [13, 21] was 2.1 µM.

In the case of `CNC(=O)c1cc(Oc2ccc(NC(=O)Nc3ccc(Cl)c(C(F)(F)F)c3)cc2)ccn1.Cc1ccc(S(=O)(=O)O)cc1` [SORAFENIB TOSYLATE], the IC50 [2, 18] is reported as 0.7 µM, the Activity [3] is reported as 31.8% and the Activity [7] is reported as 0.2%. The IC50 [9, 20] was 1.6 µM and the IC50 [13, 21] was 1.5 µM.

In the case of `Cc1ccc([S@+]([O-])C2=C(Cl)C(=O)C=CC2=O)cc1`, the Activity [1] is reported as 0.3%, the IC50 ([2]; mahlavu) is reported as “Not Active” and the Activity [3] is reported as 24.7%. The “fold change (FC)” value [4] was 0.7, the Activity [5] was 0% and the Activity [6] was 76%. For the same compound, the Activity [7] was 0.2%, the IC50 ([8]; snu-475) was “Not Active” and the IC50 ([9]; huh-7) was “Not Active”. For the same compound, the “fold change (FC)” value [10] was 0.8, the “fold change (FC)” value [11] was 1 and the “fold change (FC)” value [12] was 1.5. For the same compound, the IC50 ([13]; hep 3b2) was “Not Active” and the Activity [14] was 0.5%.

For `CCS(=O)(=O)c1ccc(OC)c(Nc2nc(-c3cccc(-c4ccccn4)c3)co2)c1`, the IC50 [2, 18] was 1.1 µM, the Activity [3] was 23.7% and the “fold change (FC)” value [4] was 1.7. The IC50 [15] was 564 µM, the Activity [7] was 0.1% and the IC50 [9, 20] was 0.4 µM. The “fold change (FC)” value [11] was 2.6 and the IC50 [13, 21] was 0.9 µM.

`CCS(=O)(=O)c1ccc(OC)c(Nc2ncc(-c3cc(-c4ccccn4)cc(-c4ccccn4)c3)o2)c1` was tested, and the IC50 [2, 18] was 3 µM, the Activity [3] was 31.6% and the “fold change (FC)” value [4] was 2.3. For the same compound, the Activity [7] was 0.4%, the IC50 [9, 20] was 2.8 µM and the “fold change (FC)” value [11] was 2.9. It also gave an IC50 [13, 21] of 2 µM.

For `C[C@H](NC(=O)Cc1cc(F)cc(F)c1)C(=O)N[C@H](C(=O)OC(C)(C)C)c1ccccc1`, the Activity [1] was 0.1%, the IC50 [2, 18] was 5 µM and the Activity [3] was 10.2 - 26.7%. The “fold change (FC)” value [4] was 0.8, the Activity [5] was 0% and the Activity [6] was 68.8%. For the same compound, the IC50 [8, 19] was 0.6 µM, the IC50 [9, 20] was 5 µM and the “fold change (FC)” value [10] was 0.2. For the same compound, the “fold change (FC)” value [11] was 0.7, the “fold change (FC)” value [12] was 0.5 and the IC50 [13, 21] was 5 µM. The Activity [14] was 0.1%.

With `CCOC1=CC(=O)C(C)=C([S@@+]([O-])c2ccc(C)cc2)C1=O` the Activity [1] was 0.1%, the IC50 [2, 18] was 18.3 µM and the Activity [3] was 40.6%. For the same compound, the “fold change (FC)” value [4] was 1.2, the Activity [5] was 0% and the Activity [6] was 80.1%. It also gave an Activity [7] of 0.3%, an IC50 [8, 19] of 5.5 µM and an IC50 [9, 20] of 7 µM. For the same compound, the “fold change (FC)” value [10] was 1.7, the “fold change (FC)” value [11] was 1 and the “fold change (FC)” value [12] was 0.5. The IC50 [13, 21] was 12 µM and the Activity [14] was 1%.

For `COC1=CC(=O)C(C)=C([S@@+]([O-])c2ccc(C)cc2)C1=O`, the Activity [1] was 0.1%, the IC50 [2, 18] was 14.5 µM and the Activity [3] was 35.8%. The “fold change (FC)” value [4] was 1.1, the Activity [5] was 0% and the Activity [6] was 87.8%. The Activity [7] was 0.5%, the IC50 [8, 19] was 10.5 µM and the IC50 [9, 20] was 8 µM. For the same compound, the “fold change (FC)” value [10] was 1.3, the “fold change (FC)” value [11] was 1.1 and the “fold change (FC)” value [12] was 0.5. For the same compound, the IC50 [13, 21] was 5.5 µM and the Activity [14] was 0.8%.

With `COC1=CC(=O)C(C)=C([S+]([O-])c2ccc(C)cc2)C1=O` (racemic) the Activity [1] was 0.4%, the IC50 [2, 18] was 11.6 µM and the Activity [3] was 41.3%. For the same compound, the “fold change (FC)” value [4] was 1.3, the Activity [5] was 0% and the Activity [6] was 84.9%. The Activity [7] was 0.8%, the IC50 [8, 19] was 6.1 µM and the IC50 [9, 20] was 5.5 µM. For the same compound, the “fold change (FC)” value [10] was 2.2, the “fold change (FC)” value [11] was 1.1 and the “fold change (FC)” value [12] was 2. It also gave an IC50 [13, 21] of 4.3 µM and an Activity [14] of 1.3%.

`CO[C@H]1[C@@H](OC)C[C@H](C)[C@@H](OC)C2=CC(=O)C=C(NC(=O)/C(C)=C/C=C\[C@H](OC)[C@@H](OC(N)=O)/C(C)=C/[C@@H]1C)C2=O` gave an inhibition [16] of 61% and an inhibition [17] of 78%.

`CCS(=O)(=O)c1ccc(OC)c(Nc2ncc(-c3cccc(-c4ccccn4)c3)o2)c1` was tested, and the IC50 [2, 18] was 1.2 µM, the Activity [3] was 23.9% and the “fold change (FC)” value [4] was 1.7. For the same compound, the Activity [7] was 0.1%, the IC50 [9, 20] was 1.5 µM and the “fold change (FC)” value [11] was 1.7. For the same compound, the IC50 [13, 21] was 0.7 µM.

— ChEMBL document CHEMBL4138043, “Quinoides and VEGFR2 TKIs influence the fate of hepatocellular carcinoma and its cancer stem cells” (Medchemcomm, 2017)
